Test [1] deals with serum from a patient suffering from RA. The test is described as follows: Dot-blot of peptides and fil-gst before and after PAD, serum from an RA patient. Type of test: binding, human. The settings on record: serum 1/2000. As to the method:
(§1) These 2 peptides, as well as fil-gst, were citrullinated by the action of PAD, for 30 minutes at 50° C., in the same reaction medium as that indicated in Example 2. The specific conditions for each peptide, and for the fil-gst are the following: • peptide S-47-S (SEQ ID NO:3): 4 mU/μmol arginine • peptide S-35-R (SEQ ID NO:4): 2.7 mU/μmol arginine • fil-gst as indicated in Example 2.
(§2) The reactivity of each peptide and that of fil-gst, before and after action of the enzyme, towards the monoclonal antibody AHF4, and the serum from a patient suffering from RA, is compared by dot-blot.
(§3) The operating conditions are the following: • 0.5 μg by deposition of each antigen (peptides, fil-gst, acido-neutral variants of filaggrin (AVF)) • nitrocellulose treatment 45 minutes at 80° C., before immunodetection • RA serum used at the dilution of 1/2000; monoclonal antibody AHF4 used at a concentration of 0.2 μg/ml

For the next test, the system named is monoclonal antibody AHF4. Description: Dot-blot of peptides and fil-gst before and after PAD, monoclonal antibody AHF4. The test is classed as binding. The following applies: 0.5 μg antigen per deposit, AHF4 0.2 μg/ml. The method, then: as §1, §2, §3
Test [2] relates to anti-filaggrin autoantibodies (AFAs). The test is described as follows: ELISA of citrullinated and noncitrullinated peptides coated on microtiter plates. Type of test: binding, human. The method, then: The reactivity of each citrullinated and noncitrullinated peptide was tested respectively in relation to a normal serum, to two sera from RA patients, to anti-filaggrin antibodies (AFAs) purified from a pool of 45 sera from RA patients and to anti-filaggrin antibodies purified from 12 sera from RA patients.
The wells of NUNC MAXISORP microtiter plates were respectively coated with the aid of the noncitrullinated and citrullinated peptides E-12-D (SEQ ID NO:6) and E-12-H (SEQ ID NO:5), diluted to a concentration of 5 μg/ml in a PBS buffer (pH: 7.4) and incubated overnight at 4° C. (final volume: […]). The wells were saturated for 30 minutes at 37° C. in PBS-Tween 20, 0.05%, 2.5% gelatin, 200 μl/well. The negative control serum (normal serum) was diluted 1/120. The antifilaggrin antibodies were diluted in PBS-Tween 20, 0.05%-0.5% gelatin (PBS TG) such that the final anti-filaggrin autoantibody concentrations are those indicated in the accompanying Table I. The negative control serum, the RA sera and the anti-filaggrin antibodies were added (final volume: 100 μl/well) and incubated for 1 hour at 37° C. and overnight at 4° C. Peroxidase-labeled goat antibodies anti-gamma heavy chains of the human immunoglobulins (marketed by the company SOUTHERN BIOTECHNOLOGIES) were added to each well (dilution in PBSTG: 1/2000, final volume: 100 μl/well) and incubated for 1 hour at 37° C.
The results presented in the accompanying Table I are given as a ratio of OD at 492 nm: citrullinated peptide signal/noncitrullinated peptide signal.
On the technique in general: An ELISA detects its analyte on a solid surface through an enzyme-linked reagent.

For test [3], the system named is AFAs present in sera from patients suffering from RA. The test is described as follows: Immunoblot of fil-gst deiminated in vitro by PAD, revealed with a pool of 5 RA sera. Type of test: binding, human. The settings on record: for recognition by the sera from patients suffering from RA: pool of 5 RA sera 1/2000. As to the method:
(§4) The mixture of the 9 fragments is subjected to deimination in vitro by peptidylarginine deiminase.
(§5) A rabbit muscle peptidylarginine deiminase preparation (681 U/ml) marketed by TAKARA BIOMED EUROPE is used according to the protocol recommended by the manufacturer.
(§6) The operating conditions are the following: • reaction medium: 0.1 M Tris-HCl, 10 mM CaCl2, 5 mM DTT, pH 7.4; • enzyme/substrate ratio: 140 mU/μmol of filaggrin containing 10% arginine or 4 mU/μmol of arginine; • incubation: between 0 and 60 min at 50° C.; • termination of the reaction: heating 3 min in LAEMMLI buffer.
(§7) 1 μl of each sample is deposited on an electrophoresis gel (PHAST®-SDS gel 12.5% PHARMACIA), and the electrophoresis is carried out with the PHAST-SYSTEM® apparatus (PHARMACIA), under the conditions recommended by the manufacturer. […] Dermatol. 105, 432, (1995)] at the concentration of 0.2 μg/ml (FIG. 3b).
The results are illustrated by FIG. 3 • Lane 1: BSA (1 hour, 50° C.) • Lane 2: BSA+PAD (1 hour, 50° C.) • Lane 3: fil-gst (1 hour, […]) • Lane 5: fil-gst+PAD (15 minutes, 50° C.) • Lane 6: fil-gst+PAD (30 minutes, 50° C.) • Lane 7: fil-gst+PAD (1 hour, 50° C.) • Lane 8: fil-gst+PAD+inhibitor (1 hour, 50° C.)
Background: A western blot detects proteins with antibodies after separation by electrophoresis.

Test [4] relates to anti-filaggrin monoclonal antibody AHF2. Description: Immunoblot of fil-gst deiminated in vitro by PAD, revealed with monoclonal antibody AHF2. The test is classed as binding. The settings on record: AHF2 0.2 μg/ml. The method, then: as §4, §5, §6, §7
The results are illustrated by FIG. 3 • Lane 1: BSA (1 hour, 50° C.) • Lane 2: BSA+PAD (1 hour, 50° C.) • Lane 3: fil-gst (1 hour, 50° C.) • Lane 4: fil-gst+PAD (15 minutes, 50° C.) • Lane 5: fil-gst+PAD (15 minutes, 50° C.) • Lane 6: fil-gst+PAD (30 minutes, 50° C.) • Lane 7: fil-gst+PAD (1 hour, 50° C.) • Lane 8: fil-gst+PAD+inhibitor (1 hour, 50° C.)

Setting [5] is: after citrullination (PAD 30 minutes at 50° C.), 0.5 μg antigen per deposit.
Where [6] appears, read: not citrullinated, 0.5 μg antigen per deposit.
Where [7] appears, read: citrullinated (PAD 30 minutes at 50° C.).
Where [8] appears, read: Control serum (normal serum) diluted 1/120.
Setting [9] is: Pool of AFAs (purified from 45 RA sera), 5 μg/ml.
[10] abbreviates: Pool of AFAs (purified from 45 RA sera), 10 μg/ml.
The mark [11] stands for this setting: Pool of AFAs (purified from 45 RA sera), 20 μg/ml.

Square brackets hold non-standard residues; d marks the D form. Cit = NC(=O)NCCC[C@H](N)C(=O)O

Take “NH2-SQDRDSQAQSEDSERRSASASRNHRGSAQEQSRDGSR-COOH (H-SQDRDSQAQSEDSERRSASASRNHRGSAQEQSRDGSR-OH; also: citrullinated, positions not given here; listed as Homo sapiens) [Peptide S-35-R, peptide of 37 amino acids, amino acids 155 to 191 of a human filaggrin unit, 7 arginine residues; tested before and after PAD]”: the “recognition by the serum from the patient suffering from RA” value (“recognition by the serum” for short) in test [1] (setting [5]) and in test [1] (setting [6]) was “not recognized” each time. The “recognition by AHF4” value in the test with monoclonal antibody AHF4 (setting [7]) and with monoclonal antibody AHF4 (not citrullinated) was “does not recognize” in each case.
With “AVFs: acido-neutral variants of human epidermal filaggrin [reference compound]”, in test [1] (natural antigen as such, 0.5 μg per deposit), the “recognition by the serum” value is “recognizes”.
On to “NH2-EQSADSSRHSGSGH-COOH (H-EQSADSS[Cit]HSGSGH-OH) [Peptide E-12-H]”, for which the “ratio of OD at 492 nm: citrullinated peptide signal/noncitrullinated peptide signal” value in test [2] (setting [8]) was determined as 1; in test [2] (setting [9]), 2.45; in test [2] (setting [10]), 2.42; in test [2] (setting [11]) it was 1.82; in test [2] (RA1 serum, AFAs 10 μg/ml), 1.32; in test [2] (RA1 serum, AFAs 20 μg/ml), 1.20. For the same molecule, the “ratio of OD at 492 nm: citrullinated peptide signal/noncitrullinated peptide signal” value in test [2] (RA2 serum, AFAs 5 μg/ml) worked out at 10.44; in test [2] (RA2 serum, AFAs 10 μg/ml), 11.51; in test [2] (RA2 serum, AFAs 20 μg/ml), 8.38.
Regarding “NH2-STGHSGSQHSHTTTQGRSDASRGSSGSRSTSRETRDQEQSGDGSRHSGS-COOH (H-STGHSGSQHSHTTTQGRSDASRGSSGSRSTSRETRDQEQSGDGSRHSGS-OH; also: citrullinated, positions not given here; listed as Homo sapiens) [Peptide S-47-S, peptide of 49 amino acids, amino acids 71 to 119 of a human filaggrin unit, 6 arginine residues; tested before and after PAD]”, in test [1] (setting [5]), the “recognition by the serum” value is given as “recognized”. For the same molecule, the “recognition by AHF4” value with monoclonal antibody AHF4 (setting [7]) and in the test on monoclonal antibody AHF4 (not citrullinated) was “recognizes” in each case.
On to “NH2-ESSRDGSRHPRSHD-COOH (H-ESSRDGSRHPRSHD-OH; not fully specified; printed as NH2-ESSRDGSRHPRSHD-COOH) [Peptide E-12-D]”, for which the “ratio of OD at 492 nm: citrullinated peptide signal/noncitrullinated peptide signal” value in test [2] (setting [8]) is 1.076; in test [2] (setting [9]) it was 1.77; in test [2] (setting [10]), 1.63; in test [2] (setting [11]), 1.48; in test [2] (RA1 serum, AFAs 10 μg/ml) it was 1.42; in test [2] (RA1 serum, AFAs 20 μg/ml) it was 1.85. The “ratio of OD at 492 nm: citrullinated peptide signal/noncitrullinated peptide signal” value is given as 2.42 in test [2] (RA2 serum, AFAs 5 μg/ml); 3.77 in test [2] (RA2 serum, AFAs 10 μg/ml); 5.57 in test [2] (RA2 serum, AFAs 20 μg/ml).

B1: fil-gst: recombinant human filaggrin unit fused with glutathione S-transferase (GST), expressed in E. coli (protein)
chain: QSESAHGRTGTSTGGRQGSHHKQARDSSRHSTSQEGQDTIHGHPGSSSGGRQGSHYEQLVDRSGHSGSHHSHTTSQGRSDASHGHSGSRSASRQTRNDEQSGDGSRHSGSRHHEASSRADSSGHSQVGQGQSEGPRTSRNWGSSFSQDSDSQGHSEDSERWSGSASRNHHGSAQEQLRDGSRHPRSHQEDRAGHGHSADSSRQSGTRHTQTSSGGQAASSHEQARSSAGERHGSHHQQSADSSRHSGIGHGQASSAVRDSGHRGYSGSQASDNEGHSEDSDTQSVSAHGQAGSHQQSHQESARGRSGETSGHSGSFLYQVSTHE
modifications: left off: a dimerising Fc or GST
notes: recombinant human filaggrin unit fused with glutathione S-transferase (GST), expressed in E. coli
On to B1, for which the “reactivity with the pool of RA sera” value in test [3] (PAD reacted for 60 minutes at 50° C. (lane 7), sera 1/2000) is “increase in reactivity”. The “recognition by the sera from patients suffering from RA” value is listed as “not recognized” in test [3] (absence of citrullination reaction (1 h, 50° C. without PAD, lane 3)) and “detected” in test [3] (from 5 minutes of citrullination with PAD at 50° C. (lane 4)). The “recognition by the serum” value in test [1] (setting [6]) was “does not recognize”. Besides, the “recognition by monoclonal antibody AHF2” value in test [4] (citrullinated) and in test [4] (not citrullinated) was “recognizes all the fragments” throughout. Further, the “recognition by AHF4” value with monoclonal antibody AHF4 (setting [7]) and with monoclonal antibody AHF4 (not citrullinated) was “recognizes” each time.

The values are drawn from US6890720B1, “Antigens derived from filaggrin and their use for diagnosing rheumatoid polyarthritis” (Biomerieux, priority 1996, dated 2005).
